What all share (assay type): functional
The test system of assay [1] is Staphylococcus aureus. Kind of assay: Anti-bacterial activity against methicillin-susceptible Staphylococcus aureus CCARM 0204 by 2-fold microtiter broth dilution method. On the technique in general: Broth dilution looks for growth in wells or tubes with falling amounts of substance.
Assay [2] relates to Staphylococcus aureus. Kind of assay: Anti-bacterial activity against methicillin-susceptible Staphylococcus aureus CCARM 0205 by 2-fold microtiter broth dilution method.
For assay [3], the system named is Staphylococcus aureus. Kind of assay: Anti-bacterial activity against methicillin-susceptible Staphylococcus aureus CCARM 3640 by 2-fold microtiter broth dilution method.
For assay [4], the system named is Staphylococcus aureus. Kind of assay: Anti-bacterial activity against methicillin-susceptible Staphylococcus aureus CCARM 0027 by 2-fold microtiter broth dilution method.
Assay [5] has as its system Staphylococcus aureus. Briefly: Anti-bacterial activity against methicillin-resistant Staphylococcus aureus CCARM 3089 by 2-fold microtiter broth dilution method.
The test system of assay [6] is Staphylococcus aureus. Briefly: Anti-bacterial activity against methicillin-resistant Staphylococcus aureus CCARM 3090 by 2-fold microtiter broth dilution method.
Assay [7] concerns Staphylococcus aureus. Briefly: Anti-bacterial activity against methicillin-resistant Staphylococcus aureus CCARM 3634 by 2-fold microtiter broth dilution method.
Assay [8] has as its system Staphylococcus aureus. Briefly: Anti-bacterial activity against methicillin-resistant Staphylococcus aureus CCARM 3635 by 2-fold microtiter broth dilution method.
The subject of another assay is Escherichia coli. Kind of assay: Anti-bacterial activity against Escherichia coli ATCC 11775 by 2-fold microtiter broth dilution method. Particulars: DSM 30083 = JCM 1649 = ATCC 11775.
The subject of a further assay is Salmonella typhimurium. Kind of assay: Anti-bacterial activity against Salmonella typhimurium ATCC 14028 by 2-fold microtiter broth dilution method. Particulars: Salmonella enterica subsp. enterica serovar Typhimurium.
Another assay relates to Klebsiella pneumoniae. Kind of assay: Anti-bacterial activity against Klebsiella pneumoniae ATCC 4352 by 2-fold microtiter broth dilution method.

≈ marks a conversion by molar mass, not a printed value. Calls of active or inactive are those of the source. A value given as a limit tells only on which side of the number the result lay.

As to `CN[C@H](CC(C)C)C(=O)N[C@H]1C(=O)N[C@@H](CC(N)=O)C(=O)N[C@H]2C(=O)N[C@H]3C(=O)N[C@H](C(=O)N[C@H](C(=O)O)c4cc(O)cc(O)c4-c4cc3ccc4O)[C@H](O)c3ccc(c(Cl)c3)Oc3cc2cc(c3O[C@@H]2O[C@H](CO)[C@@H](O)[C@H](O)[C@H]2O[C@H]2C[C@](C)(N)[C@H](O)[C@H](C)O2)Oc2ccc(cc2Cl)[C@H]1O` [VANCOMYCIN], the MIC in the assay on Staphylococcus aureus [1] is 0.25 µg/mL (≈ 0.173 µM); in the assay with Staphylococcus aureus [2], less than 0.13 µg/mL; in the assay on Staphylococcus aureus [3] it was 0.25 µg/mL (≈ 0.173 µM).
On to `O=C1O/C(=C\c2cc(Br)c(O)c(Br)c2)C(c2cc(Br)c(O)c(Br)c2)=C1[C@@H](O)c1cc(Br)c(O)c(Br)c1`, for which the MIC with Staphylococcus aureus [4] turned out to be 2 µg/mL (≈ 2.28 µM); against Staphylococcus aureus [1], 1 µg/mL (≈ 1.14 µM); in the assay on Staphylococcus aureus [2], 1 µg/mL (≈ 1.14 µM); against Staphylococcus aureus [3] it was 1 µg/mL (≈ 1.14 µM); with Staphylococcus aureus [5] it was 1 µg/mL (≈ 1.14 µM); against Staphylococcus aureus [6], 1 µg/mL (≈ 1.14 µM). Besides, the minimum inhibitory concentration (MIC) in the assay with Staphylococcus aureus [7] and against Staphylococcus aureus [8] was 1 µg/mL (≈ 1.14 µM) throughout. The result in the assay with Escherichia coli, in the assay with Salmonella typhimurium and in the assay on Klebsiella pneumoniae was inactive.
As for `COc1c(Br)cc([C@H](O)C2=C(c3cc(Br)c(O)c(Br)c3)/C(=C/c3ccc(O)c(Br)c3)OC2=O)cc1Br`, the MIC with Staphylococcus aureus [4] turned out to be 1 µg/mL (≈ 1.23 µM); in the assay on Staphylococcus aureus [1], 1 µg/mL (≈ 1.23 µM); with Staphylococcus aureus [2] it was 0.5 µg/mL (≈ 0.617 µM); with Staphylococcus aureus [3], 1 µg/mL (≈ 1.23 µM); against Staphylococcus aureus [5], 2 µg/mL (≈ 2.47 µM); with Staphylococcus aureus [6] it was 2 µg/mL (≈ 2.47 µM). Moreover, the MIC against Staphylococcus aureus [7] came to 2 µg/mL (≈ 2.47 µM); against Staphylococcus aureus [8] it was 1 µg/mL (≈ 1.23 µM). In addition, the outcome in the assay with Escherichia coli, with Salmonella typhimurium and in the assay on Klebsiella pneumoniae was inactive.
Turning to `COc1ccc(C=C2OC(=O)C([C@@H](O)c3cc(Br)c(OC)c(Br)c3)=C2c2cc(Br)c(O)c(Br)c2)cc1Br`, the MIC was determined as 4 µg/mL (≈ 4.85 µM) against Staphylococcus aureus [4]; 4 µg/mL (≈ 4.85 µM) in the assay on Staphylococcus aureus [1]; 2 µg/mL (≈ 2.42 µM) with Staphylococcus aureus [2]; 4 µg/mL (≈ 4.85 µM) in the assay with Staphylococcus aureus [3]; 8 µg/mL (≈ 9.7 µM) against Staphylococcus aureus [5]; 4 µg/mL (≈ 4.85 µM) against Staphylococcus aureus [6]. The MIC against Staphylococcus aureus [7] and in the assay on Staphylococcus aureus [8] was 4 µg/mL (≈ 4.85 µM) in each case. For the same compound, the outcome in the assay on Escherichia coli, with Salmonella typhimurium and in the assay on Klebsiella pneumoniae was inactive.
Regarding `C[C@]12C[C@@]34C=CC(=O)[C@@](C)(CCC(=O)Nc5c(O)ccc(C(=O)O)c5O)[C@@H]3[C@H](C[C@@H]1C4)O2`, the MIC against Staphylococcus aureus [4] was 4 µg/mL (≈ 9.06 µM); against Staphylococcus aureus [1], 4 µg/mL (≈ 9.06 µM); in the assay with Staphylococcus aureus [2], 4 µg/mL (≈ 9.06 µM); against Staphylococcus aureus [3], 8 µg/mL (≈ 18.1 µM); against Staphylococcus aureus [5], 8 µg/mL (≈ 18.1 µM); against Staphylococcus aureus [6], 8 µg/mL (≈ 18.1 µM). The MIC in the assay on Staphylococcus aureus [7] and in the assay with Staphylococcus aureus [8] was 8 µg/mL (≈ 18.1 µM) in each case.
Turning to `CCCCCCCCCC(=O)N[C@@H](Cc1c[nH]c2ccccc12)C(=O)N[C@@H](CC(N)=O)C(=O)N[C@@H](CC(=O)O)C(=O)N[C@@H]1C(=O)NCC(=O)N[C@@H](CCCN)C(=O)N[C@@H](CC(=O)O)C(=O)N[C@H](C)C(=O)N[C@@H](CC(=O)O)C(=O)NCC(=O)N[C@H](CO)C(=O)N[C@@H]([C@H](C)CC(=O)O)C(=O)N[C@@H](CC(=O)c2ccccc2N)C(=O)O[C@@H]1C` [DAPTOMYCIN], the MIC against Staphylococcus aureus [4] was 16 µg/mL (≈ 9.87 µM); in the assay on Staphylococcus aureus [1], 4 µg/mL (≈ 2.47 µM); in the assay on Staphylococcus aureus [2], 2 µg/mL (≈ 1.23 µM); in the assay with Staphylococcus aureus [3], 16 µg/mL (≈ 9.87 µM); with Staphylococcus aureus [5], greater than 32 µg/mL; in the assay with Staphylococcus aureus [6], greater than 32 µg/mL. Also, the MIC with Staphylococcus aureus [7] and against Staphylococcus aureus [8] was greater than 32 µg/mL each time.
Turning to `COc1ccc(C=C2OC(=O)C([C@@H](O)c3cc(Br)c(OC)c(Br)c3)=C2c2cc(Br)c(O)c(Br)c2)cc1`, the MIC against Staphylococcus aureus [4] is 4 µg/mL (≈ 5.36 µM); against Staphylococcus aureus [1], 4 µg/mL (≈ 5.36 µM); against Staphylococcus aureus [2], 4 µg/mL (≈ 5.36 µM); against Staphylococcus aureus [3], 8 µg/mL (≈ 10.7 µM); with Staphylococcus aureus [5], 4 µg/mL (≈ 5.36 µM); with Staphylococcus aureus [6] it was 8 µg/mL (≈ 10.7 µM). The MIC with Staphylococcus aureus [7] and against Staphylococcus aureus [8] was 4 µg/mL (≈ 5.36 µM) each time. The result in the assay with Escherichia coli, in the assay on Salmonella typhimurium and in the assay with Klebsiella pneumoniae was inactive.
As for `COc1c(Br)cc([C@H](O)C2=C(c3ccc(O)c(Br)c3)/C(=C/c3cc(Br)c(O)c(Br)c3)OC2=O)cc1Br`, the MIC in the assay on Staphylococcus aureus [4] was determined as 4 µg/mL (≈ 4.93 µM); in the assay on Staphylococcus aureus [1], 2 µg/mL (≈ 2.47 µM); in the assay with Staphylococcus aureus [2], 2 µg/mL (≈ 2.47 µM); with Staphylococcus aureus [3] it was 4 µg/mL (≈ 4.93 µM); with Staphylococcus aureus [5] it was 4 µg/mL (≈ 4.93 µM); against Staphylococcus aureus [6], 4 µg/mL (≈ 4.93 µM). Also, the MIC with Staphylococcus aureus [7] and against Staphylococcus aureus [8] was 4 µg/mL (≈ 4.93 µM) in each case. Further, the outcome in the assay with Escherichia coli, in the assay on Salmonella typhimurium and with Klebsiella pneumoniae was inactive.

The MIC is the smallest concentration in the dilution series that meets the test's criterion for growth inhibition.

These data come from ChEMBL document CHEMBL4000224, “Cadiolides J-M, antibacterial polyphenyl butenolides from the Korean tunicate Pseudodistoma antinboja” (2017).
